The text below walks through data of patent US20180346995A1, “Process for Exploiting Synthetic Lethality Based on OverExpression of MYC Oncogene” (priority 2017, published 2018).

Assay [1] concerns HA1E cells expressing MycER. The assay can be described thus: Cell death on acute activation of MYC (MycER + 4-OHT), HA1E. It is filed as cell-based, human. The settings on record: 3 days; for cell death, agent alone: single agent. How it is done:
(§1) Cell viability was determined by the trypan blue exclusion assay. Each column represents the average of 3 independent experiments, and each experiment was done in triplicate. Error bars represent one standard deviation. FIG. 1(B) illustrates the cytotoxicity of H-1152 for normal cells and a MYC-overexpressing human cancer cell line IM-9. H-1152 was applied to the indicated cells at 6 μM for 3 days. Cell viability, was determined by the trypan blue exclusion assay. A representative experiment is shown. […] Rat1A cells harboring either an empty vector or various indicated oncogenes were treated with either 0.1% DMSO or 6 μM H-1152 for 3 days. Cell viability was determined by the trypan blue exclusion assay. Each column represents the average of 3 independent experiments, and each experiment was done in triplicate. Error bars represent one standard deviation. […] Rat (Rat1A) or human (HA1E and IMR-90) cells expressing either MycER or MycNER were incubated with or without 6 μM H-1152 and/or 200 nM 4-OHT for 3 days. Cell viability was determined by the trypan blue exclusion assay. A representative experiment is shown.
(§2) In order to negate the possibility that sustained expression of MYC gene has given rise to unidentified targets affected by H-1152, sensitivity of H-1152 in acutely activated cells was measured. Acute activation of MYC was exploited by means of a MYC-estrogen receptor chimera. This receptor is rapidly activated by the addition of 4-hydroxy-tamoxifen (“4-OH”). […] FIG. 1D. A similar experiment was conducted with acute activation of the MYCN gene. MYCN shares high sequence similarity and crucial biochemical and genetic activities with MYC. […] Accordingly, H-1152 elicits MYC-dependent cell lethality irrespective of whether MYC is constitutively expressed or acutely activated. Furthermore, this sensitivity holds true for both fibroblasts cells and epithelial cells.

Assay [2] relates to IMR-90 cells expressing MycER. The assay can be described thus: Cell death on acute activation of MYC (MycER + 4-OHT), IMR-90. It is filed as cell-based, human. The settings on record: IMR-90 MycER, 3 days; for cell death, agent alone: single agent. How it is done:
as §1, §2

The subject of assay [3] is Rat1A cells expressing MYC or other oncogenes. The assay can be described thus: Trypan blue exclusion cell viability assay in Rat1A cells harboring various oncogenes. Format: cell-based, rat. The settings on record: 6 μM, 3 days. How it is done: as §1
To determine whether cytotoxicity by H-1152 is dependent on MYC-expression or any oncogene, rat 1A cells expressing MYC as well as other active cellular oncogenes were evaluated for lethality. […] FIG. 1C.

The test system of assay [4] is RPE-MYC cells. The assay can be described thus: Trypan blue exclusion cell viability assay in RPE-MYC cells. Format: cell-based, human. The settings on record: 72 hours. As to the method: as §1
FIG. 3(B) illustrates how H-1152, but not other inhibitors of ROCK kinases, preferentially kills RPE-MYC cells. […] Cell viability was determined by the trypan blue exclusion assay. […]

In assay [5] the test system is Myc^high human cancer cell lines. The assay can be described thus: Cytotoxicity in Myc^high human cancer cell lines (trypan blue). Format: cell-based. The following applies: 6 μM, 4 days. How it is done:
(§3) FIG. 5. illustrates that MYC abundance is a univariate predicator of the response of human tumor cell lines to H-1152 by showing the cytotoxicity of H-1152 for 75 human cancer cell lines. Cell lines in the Myc^high group and the Myc^low group were treated for four days with either 0.1% DMSO or 6 μM H-1152. Cell viability was then determined by the trypan blue exclusion assay. FIG. 5(A) is a histogram representing the average of two independent experiments. […] Results are presented as the percentage of dead cells in the presence of H-1152 minus that in the presence of DMSO. Red, yellow and green dots represent cell lines with abundant Myc, MycN and L-Myc respectively. Comparison of the two data sets with two-sided Mann-Whitney test indicates p<0.0001.
(§4) The Myc^high group also includes 8 cell lines with abundant MycN expression and 3 cell lines abundantly expressing L-Myc. […] (FIG. 5 A, B). The difference between the two data sets was statistically significant.

The subject of assay [6] is NCI-H2199 xenograft tumors. The experiment in a line: Xenograft tumor growth in athymic mice, NCI-H2199. It is filed as in vivo. The settings on record: Myc^low NCI-H2199, 60 mg/kg oral gavage twice a day. An excerpt: (§5) FIG. 7. illustrates how H-1152 elicits therapeutic efficacy against tumorigenesis of cancer cells that overexpress MYC. […] Extracts from four human cancer cell lines (1. NCI-H524, 2. NCI-H841, 3. NCI-H211, 4. NCI-H2199) were blotted for MYC and tubulin by Western blotting. […] See Appendix D for Method of Mouse In Vivo Assay. Two Myc^high cell lines and two Myc^low cell lines were implanted subcutaneously into athymic mice (One to ten millions of cells per injection). When tumors reached approximately 50-70 mm^3, tumor-bearing mice were randomized to receive oral gavage with either vehicle of H-1152 (60 mg/kg body weight per injection) twice a day until the endpoint. The tumor volume was determined at the indicated time points.
(§6) To determine whether tissue culture results can be replicated in vivo, two cell lines from Myc^High group, namely NCI-H841 and NCI-H524, and two cell lines from Myc^low group, namely NCI-H211 and NCI-H2199. […]
(§7) Experimental mice are housed and treated according to the protocol approved by the Institutional Animal Care and Use Committee of MBICR. […] Tumor diameter at injection sites are monitored at the indicated time points with a digital caliper and the volume calculated using the formula: V (mm3)=A×B×B/2, where A and B represent the largest and smallest diameters of the tumor respectively.

Assay [7] deals with normal cells and immortalized cells. The assay can be described thus: Trypan blue exclusion cell viability assay in normal and immortalized cells. Format: cell-based. The following applies: 6 μM, 3 days. As to the method:
as §1
(§8) The result after 3-days treatment were similar. […] The one observed exception is the IM-9 cells that overexpress MYC. Cell lethality in the IM-9 cell line was approximately 30% after H-1152 treatment for 3 days. FIG. 1B.

Assay [8] has as its system cells expressing MYCN-estrogen receptor chimera. The assay can be described thus: Cell death on acute activation of MYCN (MycNER + 4-OHT). It is filed as cell-based. The settings on record: MYCN-ER activated with 4-OHT, H-1152 application. How it is done: as §1
In order to negate the possibility that sustained expression of MYC gene has given rise to unidentified targets affected by H-1152, sensitivity of H-1152 in acutely activated cells was measured. Acute activation of MYC was exploited by means of a MYC-estrogen receptor chimera. […]

The subject of assay [9] is RPE-MYC cells. The assay can be described thus: Apoptosis assays (immunofluorescence, Mitotracker) in RPE-MYC cells. Format: cell-based, human. The settings on record: 6 μM. How it is done:
RPE-MYC cells were exposed to 6 μM H-1152 for 48 hours and then incubated for 30 minutes with 40 nM MITOTRACKER Red (Molecular Probes) and fixed. Fixed cells were stained for DNA with DAPI (in blue) and then analyzed with a confocal laser microscope. Arrowheads indicate apoptotic nuclei. Scale bar, 10 μm. See Appendix A—for Immunofluorescence Microscopy method. […] RPE-MYC and RPE-NEO cells were treated with 0.1% DMSO or 6 μM H-1152 for 3 days and then subjected to the indicated assays. Each column represents the average of 3 independent experiments, and each experiment was done in triplicate. Error bars represent one standard deviation.
FIG. 2B. […] FIB 2A. […]
Cells are cultured on coverslips in a 6-well plate, fixed with 4% paraformaldehyde or 4% paraformaldehyde followed with methanol treatment, and then permeabilized with 0.3% Triton X-100. […] Primary antibodies are detected with Texas red-conjugated or fluorescein isothiocyanate-conjugated secondary antibodies that may be purchased from Jackson ImmunoResearch. […]
For determination of mitochondrial membrane potential, cells are cultured on cover slips and exposed for 30 min at 37° C. with 40 nM Mitotracker# Red CMXRos (Molecular Probes), a dye that accumulates in mitochondria as a function of the mitochondrial potential. […] For fluorescence detection, an EVOS FL auto microscope (THERMO FISHER) can be used.

Assay [10] relates to NCI-H841 xenograft tumors. The assay can be described thus: Xenograft tumor growth in athymic mice, NCI-H841. Format: in vivo. The settings on record: Myc^high NCI-H841, 60 mg/kg oral gavage twice a day.
Text: as §5, §6, §7

Another assay concerns IM-9 cells. The experiment in a line: Trypan blue exclusion cell viability assay in IM-9 cells. The settings on record: IM-9, 6 μM, 3 days. It is filed as cell-based, human. As to the method:
as §1, §8

The subject of another assay is RPE-NEO cells. The experiment in a line: Trypan blue exclusion cell viability assay in RPE-NEO cells. Format: cell-based, human. The settings on record: 6 μM H-1152, 3 days. How it is done:
as §1
In order to confirm that H-1152 elicits cytotoxicity in cells overexpressing MYC, human retinal pigment epithelial cells were stably transfected with either MYC or a Neomycin selection marker gene (“NEO”) in combination with hTERT. […]

Assay [11] concerns Myc^low human cancer cell lines. The experiment in a line: Cytotoxicity in Myc^low human cancer cell lines (trypan blue). The following applies: Myc^low group, 6 μM, 4 days. It is filed as cell-based. As to the method: as §3, §4
The test system of assay [12] is NCI-H211 xenograft tumors. The assay can be described thus: Xenograft tumor growth in athymic mice, NCI-H211. It is filed as in vivo. The settings on record: Myc^low NCI-H211, 60 mg/kg oral gavage twice a day.
Text: as §5, §6, §7

The subject of assay [13] is NCI-H524 xenograft tumors. The assay can be described thus: Xenograft tumor growth in athymic mice, NCI-H524. It is filed as in vivo. The following applies: Myc^high NCI-H524, 60 mg/kg oral gavage twice a day.
Text: as §5, §6, §7

The target of a further assay is ROCKII (Homo sapiens, UniProt O75116). The following applies: cited from earlier work.
The mark [14] stands for this setting: 6 μM H-1152 together with 200 nM 4-OHT.

Sequence of ROCKII (O75116 whole entry, species assumed): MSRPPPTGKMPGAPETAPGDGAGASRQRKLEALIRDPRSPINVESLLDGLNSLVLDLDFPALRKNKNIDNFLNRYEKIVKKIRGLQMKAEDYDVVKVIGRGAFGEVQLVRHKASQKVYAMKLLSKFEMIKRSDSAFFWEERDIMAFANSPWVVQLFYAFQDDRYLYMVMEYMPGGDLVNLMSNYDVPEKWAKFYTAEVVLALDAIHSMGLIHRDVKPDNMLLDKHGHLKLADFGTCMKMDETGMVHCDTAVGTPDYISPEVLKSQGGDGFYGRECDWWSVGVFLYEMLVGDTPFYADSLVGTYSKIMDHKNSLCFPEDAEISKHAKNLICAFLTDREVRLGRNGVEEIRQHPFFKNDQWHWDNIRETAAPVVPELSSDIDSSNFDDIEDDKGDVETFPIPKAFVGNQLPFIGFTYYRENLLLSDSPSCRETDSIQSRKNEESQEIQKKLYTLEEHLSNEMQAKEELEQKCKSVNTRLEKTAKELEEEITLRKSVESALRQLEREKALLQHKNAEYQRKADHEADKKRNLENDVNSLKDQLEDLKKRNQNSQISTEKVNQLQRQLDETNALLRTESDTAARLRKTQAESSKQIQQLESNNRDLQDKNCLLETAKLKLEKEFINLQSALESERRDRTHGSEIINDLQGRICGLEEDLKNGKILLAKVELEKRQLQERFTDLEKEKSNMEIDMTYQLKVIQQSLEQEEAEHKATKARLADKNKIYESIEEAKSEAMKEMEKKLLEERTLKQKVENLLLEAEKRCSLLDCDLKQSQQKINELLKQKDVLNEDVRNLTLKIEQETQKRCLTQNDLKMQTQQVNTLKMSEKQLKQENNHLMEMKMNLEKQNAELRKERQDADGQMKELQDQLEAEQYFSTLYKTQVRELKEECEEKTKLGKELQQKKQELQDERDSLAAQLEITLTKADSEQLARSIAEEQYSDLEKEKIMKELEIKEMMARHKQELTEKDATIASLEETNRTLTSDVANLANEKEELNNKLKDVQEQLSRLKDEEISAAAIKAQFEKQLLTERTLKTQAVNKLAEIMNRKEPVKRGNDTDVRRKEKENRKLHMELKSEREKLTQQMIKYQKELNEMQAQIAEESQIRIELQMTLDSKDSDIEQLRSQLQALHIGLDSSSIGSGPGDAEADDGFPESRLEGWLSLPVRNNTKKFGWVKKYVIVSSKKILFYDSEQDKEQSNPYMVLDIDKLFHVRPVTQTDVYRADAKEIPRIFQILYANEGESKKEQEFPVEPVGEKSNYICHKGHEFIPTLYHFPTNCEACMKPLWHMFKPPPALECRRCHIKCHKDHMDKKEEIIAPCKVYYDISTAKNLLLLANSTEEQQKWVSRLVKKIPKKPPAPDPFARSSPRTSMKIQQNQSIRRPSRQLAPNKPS

Turning to 4-hydroxy-tamoxifen [4-OH], the “cell death, agent alone” value in assay [1] and in assay [2] was “low levels of cell death” each time.

Turning to `Cc1cncc2cccc(S(=O)(=O)N3CCCNC[C@@H]3C)c12` [H-1152, dimethylfasudil], in assay [3], the “cell death among cells with various active oncogenes” value is reported as “only MYC expressing cells demonstrated cell death”. Moreover, the cell lethality is 15% in the assay with RPE-MYC cells [4] (6 μM H-1152 + 100 μM z-VAD-fmk); “over 30%” in assay [1] (setting [14]); “over 30%” in assay [2] (setting [14]); “high cell lethality” in assay [8]; “approximately 30%” in the assay on IM-9 cells. Besides, the “cell death in comparison of ROCK inhibitors” value in the assay with RPE-MYC cells [4] is recorded as “significant cell death”. Also, the “cell death, agent alone” value in [1] and in [2] was “low levels of cell death” throughout. Besides, the “cell death across cell lines, Myc^high versus Myc^low” value in assay [5] was “massive cell death in a much higher percentage of cell lines in the Myc^high group”. In [5] (Myc^high group), the “cell lines that failed to undergo apoptosis” value was 11 of the 51. Moreover, the tumor development entry in [6] is “failed to impact tumor development”; in [10], “slowed down tumor development”; in [12], “failed to impact tumor development”; in [13], “stabilized tumor development”. Further, the cell toxicity result in assay [7] is “negligible effect on cell toxicity”. Further, in the assay on RPE-MYC cells [9] (48 hours), the “mitochondria-dependent apoptosis pathway events (membrane potential, cytochrome C release, caspase 9)” value is “cell death via activation of the mitochondria-dependent apoptosis pathway”. Besides, the “apoptotic features (nuclear condensation, caspase 3 activation, PARP cleavage)” value with RPE-MYC cells [9] (3 days) was “Symptoms of classical apoptosis were recorded”. In addition, the cells killed entry with RPE-NEO cells was “none”. In addition, the “cell lines sensitive to H-1152” value in [11] is reported as 3 of 24.

As to `C[C@H]1CNCCCN1S(=O)(=O)c1cccc2cncc(F)c12` [Rapasudil], on ROCKII, the IC50 is 19 nM.
